Counter-ions that a name gives are not always drawn. Like-named read-outs stand apart in the source and are kept apart here.
Columns and labels:
[1] = target: T1, human MCHR1 (Homo sapiens, UniProt Q99705); experiment: 125I-MCH competitive binding assay on clone 43 membranes (MCHR1 binding); conditions: competitive binding vs 100 pM 125I-MCH, clone 43 membranes (AV12 cells expressing MCHR1), Ki from IC50 by Cheng-Prusoff, tested in duplicate, read-out: MCHr Binding Ki
T1 construct: The full-length cDNA for human MCHR1 was cloned; expressed in transfected cells; host or cells: AV12 cells previously transfected with Gα15
Procedure: The full-length cDNA for human MCHR1 was cloned from a human adult brain cDNA library (Edge Biosystems, Cat. 38356) by standard polymerase chain reaction (PCR) methodology employing the following primers: sense, 5′-GCCACCATGGACCT GGAAGCCTCGCTGC-3′; anti-sense, 5′-[…]-3′. The PCR reaction was performed in a final volume of 50 μL containing 5 μL of a 10× stock solution of PCR buffer, 1 μL of 10 mM dNTP mixture (200 μM final), 2 μL of 50 mM Mg(SO4) (2 mM final), 0.5 μL of 20 μM solutions of each primer (0.2 μM final), 5 μL of template cDNA containing 0.5 ng DNA, 0.5 μL of Platinum Taq High Fidelity DNA polymerase (Gibco Life Technologies) and 36 μL of H2O. PCR amplification was performed on a Perkin Elmer 9600 thermocycler. After denaturation for 90 sec at 94° C., the amplification sequence consisting of 94° C. for 25 sec, 55° C. for 25 sec and 72° C. for 2 min was repeated 30 times, followed by a final elongation step at 72° C. for 10 min. The desired PCR product (1.1 Kb) was confirmed by agarose gel electrophoresis and the band was extracted from the gel by Geneclean (Bio101) following the manufacturer's instructions. Following extraction, the cDNA fragment was cloned into pCR2.1-TOPO plasmid (Invitrogen) to confirm the identity and sequence.
In order to generate cell lines stably expressing MCHR1, the insert was then subcloned into the Xba I and Not I sites of pcDNA(+)-3.1-neomycin (Invitrogen). After purification by Qiagen Maxi-prep kit (QIAGEN, Inc.), the plasmid was transfected by Fugene 6 (Roche Applied Science) into AV12 cells that had been previously transfected with the promiscuous G protein Gα15. The transfected cells were selected by G418 (800 μg/mL) for 10–14 days and single colonies were isolated from culture plates. The G418-resistant colonies were further selected for MCHR1 expression by measuring MCH-stimulated Ca^2+ transients with a fluorometric imaging plate reader (FLIPR, Molecular Devices).
Both the ^125I-MCH binding and functional GTPγ^35S binding assays employed membranes isolated from a clone designated as clone 43. Typically, cells from 20 confluent T225 flasks were processed by washing the monolayers in cold phosphate-buffered saline (PBS), scraping the cells into same and re-suspending the cell pellet in 35 mL of 250 mM Sucrose, 50 mM HEPES, pH 7.5, 1 mM MgCl2, 24 μg/mL DNase I, and protease inhibitors (1 Complete® tablet, per 50 ml of buffer prepared, Roche Diagnostics). After incubation on ice for 5 min, cells were disrupted with 20–25 strokes of a Teflon/Glass homogenizer attached to an overhead motorized stirrer, and the homogenate was centrifuged at 40,000 rpm in Beckman Type 70.1 Ti rotor. The pellets were re-suspended in 250 mM Sucrose, 50 mM HEPES, pH 7.5, 1.5 mM CaCl2, 1 mM MgSO4 and protease inhibitors by Teflon/Glass homogenization to achieve a protein concentration of ˜3–5 mg/ml (Pierce BCA assay with Bovine serum albumin as standard). Aliquots were stored at −70° C.
Binding of compounds to MCHR1 was assessed in a competitive binding assay employing ^125I-MCH, compound and clone 43 membranes. Briefly, assays are carried out in 96-well Costar 3632 white opaque plates in a total volume of 200 μl containing 25 mM HEPES, pH 7.5, 10 mM CaCl2, 2 mg/ml bovine serum albumin, 0.5% dimethyl sulfoxide (DMSO), 4 μg of clone 43 membranes, 100 pM ^125I-MCH (NEN), 1.0 mg of wheat germ agglutinin scintillation proximity assay beads (WGA-SPA beads, Amersham) and a graded dose of test compound. Non-specific binding is assessed in the presence of 1 μM unlabeled MCH. Bound ^125I-MCH is determined by placing sealed plates in a Microbeta Trilux (Wallac) and counting after a 5 hr delay.
IC50 values (defined as the concentration of test compound required to reduce specific binding of ^125I-MCH by 50%) are determined by fitting the concentration-response data to a 4-parameter model (max response, min response, Hill coefficient, IC50) using Excel. […]

T1 sequence (Q99705 whole entry): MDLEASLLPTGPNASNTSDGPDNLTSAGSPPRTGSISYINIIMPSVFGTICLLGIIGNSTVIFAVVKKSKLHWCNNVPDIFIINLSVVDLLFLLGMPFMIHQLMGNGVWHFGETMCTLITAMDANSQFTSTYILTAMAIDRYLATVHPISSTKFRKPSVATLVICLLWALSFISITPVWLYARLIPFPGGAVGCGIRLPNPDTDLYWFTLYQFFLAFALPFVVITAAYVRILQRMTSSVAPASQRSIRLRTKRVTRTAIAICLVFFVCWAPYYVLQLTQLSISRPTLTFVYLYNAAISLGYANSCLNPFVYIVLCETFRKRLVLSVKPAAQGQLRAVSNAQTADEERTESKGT

Compound	melting point [°C]	Ki [1] [µM]	Ki ([1]; oxalate) [µM]
CN(C)CCNC(=O)c1ccccc1-c1cccc(CSCCOc2ccccc2)c1.Cl	150 to 153		
CN(C)CCNC(=O)c1ccccc1-c1ccccc1CSCCOc1ccccc1.O=C(O)C(=O)O	46 to 50		
CN(C)CCCCNC(=O)c1ccccc1-c1ccccc1CSCCOc1ccccc1.O=C(O)C(=O)O	64 to 70		
CN(C)CCNC(=O)c1ccccc1-c1ccc(CSCCOc2ccccc2)cc1.O=C(O)C(=O)O	109 to 113		
2′-(2-phenoxy-ethylsulfanylmethyl)-biphenyl-3-carboxylic acid (4-dimethylamino-butyl)-amide oxalate [Example 22]		10.8	
4′-(2-phenoxy-ethylsulfanylmethyl)-biphenyl-4-carboxylic acid (2-dimethylamino-ethyl)-amide oxalate [Example 4]			11.7
CN(C)CCCNC(=O)c1ccc(-c2ccc(CSCCOc3ccccc3)cc2)cc1 (as salt: hydrochloride)	112 to 115		
CN(C)CCCNC(=O)c1cccc(-c2ccc(CSCCOc3ccccc3)cc2)c1.O=C(O)C(=O)O [Example 1, 4′-(2-phenoxy-ethylsulfanylmethyl)-biphenyl-3-carboxylic acid(3-dimethylamino-propyl)-amide oxalate]	132 to 133.5	5.04	
CN(C)CCNC(=O)c1cccc(-c2ccc(CSCCOc3ccccc3)cc2)c1.O=C(O)C(=O)O [Example 2, 4′-(2-phenoxy-ethylsulfanylmethyl)-biphenyl-3-carboxylic acid (2-dimethylamino-ethyl)-amide oxalate]	88 to 93	7.52	
CN(C)CCCCNC(=O)c1cccc(-c2ccc(CSCCOc3ccccc3)cc2)c1.O=C(O)C(=O)O [Example 3, 4′-(2-phenoxy-ethylsulfanylmethyl)-biphenyl-3-carboxylic acid (4-dimethylamino-butyl)-amide oxalate]	144 to 147	10.7	
CN(C)CCCCNC(=O)c1ccc(-c2ccc(CSCCOc3ccccc3)cc2)cc1.O=C(O)C(=O)O [Example 6, 4′-(2-phenoxy-ethylsulfanylmethyl)-biphenyl-4-carboxylic acid (4-dimethylamino-butyl)-amide oxalate]	142 to 147	10.1	
CN(C)CCCCNC(=O)c1ccccc1-c1ccc(CSCCOc2ccccc2)cc1.O=C(O)C(=O)O [Example 9, 4′-(2-phenoxy-ethylsulfanylmethyl)-biphenyl-2-carboxylic acid (4-dimethylamino-butyl)-amide oxalate]	72 to 76	16.3	
CN(C)CCCNC(=O)c1cccc(-c2cccc(CSCCOc3ccccc3)c2)c1.O=C(O)C(=O)O [Example 13, 3′-(2-phenoxy-ethylsulfanylmethyl)-biphenyl-3-carboxylic acid (3-dimethylamino-propyl)-amide oxalate]	51 to 53	8.76	
CN(C)CCNC(=O)c1ccc(-c2cccc(CSCCOc3ccccc3)c2)cc1 [Example 14, 3′-(2-phenoxy-ethylsulfanylmethyl)-biphenyl-4-carboxylic acid (2-dimethylamino-ethyl)-amide]	75 to 78	1.47	
CN(C)CCCNC(=O)c1ccc(-c2cccc(CSCCOc3ccccc3)c2)cc1.O=C(O)C(=O)O [Example 15, 3′-(2-phenoxy-ethylsulfanylmethyl)-biphenyl4-carboxylic acid (3-dimethylamino-propyl)-amide oxalate]	133 to 137	1.95	
CN(C)CCCCNC(=O)c1ccc(-c2cccc(CSCCOc3ccccc3)c2)cc1.O=C(O)C(=O)O [Example 16, 3′-(2-phenoxy-ethylsulfanylmethyl)-biphenyl4-carboxylic acid (4-dimethylamino-butyl)-amide oxalate]	85 to 89	8.96	
CN(C)CCNC(=O)c1cccc(-c2ccccc2CSCCOc2ccccc2)c1.O=C(O)C(=O)O [Example 20, 2′-(2-phenoxy-ethylsulfanylmethyl)-biphenyl-3-carboxylic acid (2-dimethylamino-ethyl)-amide oxalate]	96 to 100	11.4	
CN(C)CCCNC(=O)c1cccc(-c2ccccc2CSCCOc2ccccc2)c1.O=C(O)C(=O)O [Example 21, 2′-(2-phenoxy-ethylsulfanylmethyl)-biphenyl-3-carboxylic acid (3-dimethylamino-propyl)-amide oxalate]	97 to 100	8.55	
CN(C)CCNC(=O)c1ccc(-c2ccccc2CSCCOc2ccccc2)cc1 [Example 23, 2′-(2-phenoxy-ethylsulfanylmethyl)-biphenyl4-carboxylic acid (2-dimethylamino-ethyl)-amide]	93 to 96	7.2	
CN(C)CCCNC(=O)c1ccc(-c2ccccc2CSCCOc2ccccc2)cc1 [Example 24, 2′-(2-phenoxy-ethylsulfanylmethyl)-biphenyl4-carboxylic acid (3-dimethylamino-propyl)-amide]	98 to 100	6.13	
CN(C)CCCCNC(=O)c1ccc(-c2ccccc2CSCCOc2ccccc2)cc1 [Example 25, 2′-(2-phenoxy-ethylsulfanylmethyl)-biphenyl4-carboxylic acid (4-dimethylamino-butyl)-amide]		6.89	

Source: patent US7132456B2, “MCH receptor antagonists” (Eli Lilly and Company, priority 2002, dated 2006)
